# Laboratory results published in patent US20240091267A1, “PRE-TREATMENT OF MSC WITH PPARB/DELTA AGONIST FOR TREATMENT OF ISCHEMIA-REPERFUSION INJURY” (Universite de Montpellier, priority 2020, published 2024).
# Key:
# MSC = assay: Specific DNA fragmentation (Cell Death ELISA) in MSC exposed to H2O2-induced oxidative stress; assay type: cell-based, mouse; conditions: then 250 μM H2O2 4 h, vs naive MSC/H2O2
# Description: FIG. 6: Increased resistance to oxidative stress and survival of PPARβ/δ-primed MSC. (A) 48 hours after the seeding step in complete medium, MSC were subjected to H2O2-induced oxidative stress during 4 hours in minimal medium with serum deprivation. Pharmacological preconditioning of MSC using PPARβ/δ agonist or antagonist was performed 24 hours before oxidative stress exposure. At the end of the protocol, cell death or relative gene expression was analyzed measuring specific DNA fragmentation by ELISA and transcript amounts by RT-qPCR. (B): Scatter plot and bars were presented for specific DNA fragmentation quantification measured in MSC treated with H2O2 at various concentrations (0, 100, 150, 250, 500 and 750 μM) for 4 h in minimal medium. Data (normalized by the control value obtained with untreated MSC) were plotted as scatter dot blots and mean±SD for each group of treatment and compared using Kruskal-Wallis (Dunn's post hoc test) and were noted **** for p<0.0001 (250 group, n=11 independent cultures vs 0 group, n=13), ** for p=0.0013 (100 group, n=10 vs 0 group, n=13), ** for p=0.0015 (350 group, n=9 vs 0 group, n=13), **for p=0.0015 (500 group, n=9 vs 0 group, n=13) and * for p=0.0332 (750 group, n=3 vs 0 group, n=13). (C): Scatter plots and bars were presented for specific DNA fragmentation quantification measured in MSC treated with 250 μM of H2O2 pretreated with GW0742 or GSK0660 at 0.1 and 1 μM 24 hours before H2O2 exposure. […]
# DNA fragmentation was quantified in vitro on cell lysates with an enzyme-linked immunosorbent assay kit (Cell Death ELISA; Roche Diagnostics) designed to measure of histone-complexed DNA fragments (mono- and oligonucleosomes) out of the cytoplasm of cells after the induction of apoptosis.
# To do this, MSC were submitted to an IR-simulated stress in vitro using various concentrations of H2O2 (100, 250, 350, 500 and 750 μM; see the protocol on FIG. 6A) for 4 hours. Apoptosis quantification was assessed by the mean of specific DNA fragmentation measurement for the different groups of treatment. […]
# [1] = tested on: isolated perfused hearts from C57B16 mice; assay: Ex vivo Langendorff ischemia-reperfusion, infarct size, effect of preconditioning duration (Example 3); parameters: species or system mouse (C57BL/6); conditions: MSC preconditioned 24 h with 1 μM, 5,000 cells/ml, vs IR
# [2] = tested on: C57B16 mouse hearts subjected to IR injury; assay: Ex vivo Langendorff ischemia-reperfusion, infarct size (Example 2, naive or pretreated MSC); parameters: species or system mouse (C57BL/6J); conditions: MSC 2,500 cells/mL (3.10^5 MSC) pretreated 24 h with GW0742 1 μM; mean±SD
# [3] = tested on: infarcted myocardial tissue; assay: MSC grafted in infarcted myocardial tissue, fluorescence of Dil-labeled MSC in LV sections; parameters: species or system mouse (C57BL/6J); conditions: Dil-labeled MSC pretreated 1 μM vs naive MSC
# Description: MSCs were pre-incubated for 24 hours with either PPARβ/δ antagonists GSK3787 (0.1 and 1 μM), PPARβ/δ inverse agonist GSK0660 (0.1 and 1 μM) or PPARβ/δ agonist GW0742 (0.1, 1 and 5 μM) before to be washed with PBS and used in co-cultures experiments or injected in the myocardium. When indicated, MSCs were labeled with the fluorescent cell-tracer CM-Dil (Molecular Probes). MSC were collected and suspended in 5 mL PBS containing CM-Dil (10^7 cells/10 μg) prior to be incubated at 37° C. for 5 minutes followed by 15 minutes at 4° C., in the dark. Labeled MSCs were washed 2 times in PBS, resuspended in PBS and maintained at 4° C. prior to be injected in the myocardium.
# At the end of ex vivo experiments, left ventricles (LV) were fixated in formol and embedded in paraffin. Each left ventricle was cut from the apex through the base (4 μm sections each 150 μm). Paraffin-embedded sections were deparaffinised then rehydrated through an alcohol gradient. Sections were mounted in Mowiol (Biovalley). LV Sections were scanned by the Zeiss Axio Scan Z1 slide scanner (Zeiss, Oberkochen, Germany). Scanning was done with the ×20 objective. Images were analyzed using ImageJ.
# [4] = tested on: TXNIP (Thioredoxin interacting protein); conditions: neuronal stress; neonatal hypoxic-ischemic injury in rats; cited from earlier work
Structure (SMILES),Specific DNA fragmentation (MSC resistance to oxidative stress) (MSC; MSC pretreated 24 h with 1 μM),Decrease in infarct size [1] [%],Infarct size [2],Specific DNA fragmentation (MSC resistance to oxidative stress) (MSC; MSC pretreated 24 h with 0.1 μM),Percentage of fluorescence (MSC grafted in infarcted myocardium) increased by [3] [times],TXNIP inhibition [4]
COC(=O)c1sccc1S(=O)(=O)Nc1ccc(Nc2ccccc2)cc1OC [GSK0660],impaired MSC resistance against H2O2-induced oxidative without reaching significance,–,–,–,–,–
Cc1cc(SCc2sc(-c3ccc(C(F)(F)F)c(F)c3)nc2C)ccc1OCC(=O)O [GW0742],enhanced significantly MSC resistance,54.6,same cardioprotective effect,did not modify the capacity of MSC to resist against oxidative stress,3.5,inhibits TXNIP
